Experimental data taken from patent publication EP2987533B1, “7-substituted piperazin-1-yl fluoroquinolone compounds, their use in the treatment of cancer, pharmaceutical compositions and a method for preparation” (priority 2014, dated 2016).

What was measured:
leukemia = assay: NCI five-dose SRB assay, subpanel average; settings: 48 h; for GI50 / CC50: Homo sapiens; for GI50: read-out: GI50 (median growth inhibitory); for CC50: read-out: LC50 (median lethal); for TGI (total growth inhibitory): average over leukemia subpanel, five concentrations
UACC-62 = assay: NCI one-dose SRB growth assay; format: cell-based; settings: Homo sapiens; UACC-62 (Melanoma), 10^-5 M, 48 h; read-out: % Growth Inhibition (GI %)
Summary of the method: (§1)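 NCI primary one-dose screen: human tumor lines exposed to test agent (10^-5M, 48 h), then SRB protein staining; results reported as growth % versus no-drug controls.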

LOX IMVI = assay: NCI one-dose SRB growth assay; format: cell-based; settings: Homo sapiens; LOX IMVI (Melanoma), 10^-5 M, 48 h; read-out: % Growth Inhibition (GI %)
Summary of the method: as §1

BT-549 = assay: NCI one-dose SRB growth assay; format: cell-based; settings: Homo sapiens; BT-549 (Breast Cancer), 10^-5 M, 48 h; read-out: % Growth Inhibition (GI %)
Summary of the method: as §1

SK-OV-3 = assay: NCI one-dose SRB growth assay; format: cell-based; settings: Homo sapiens; SK-OV-3 (Ovarian Cancer), 10^-5 M, 48 h; read-out: % Growth Inhibition (GI %)
Summary of the method: as §1

NCI-H226 [1] = assay: NCI one-dose SRB growth assay; format: cell-based; settings: Homo sapiens; NCI-H226 (Non-Small Cell Lung Cancer), 10^-5 M, 48 h; read-out: % Growth Inhibition (GI %)
Summary of the method: as §1

ACHN = assay: NCI one-dose SRB growth assay; format: cell-based; settings: Homo sapiens; ACHN (Renal Cancer), 10^-5 M, 48 h; read-out: % Growth Inhibition (GI %)
Summary of the method: as §1

TK-10 = assay: NCI one-dose SRB growth assay; format: cell-based; settings: Homo sapiens; TK-10 (Renal Cancer), 10^-5 M, 48 h; read-out: % Growth Inhibition (GI %)
SK-MEL-2 = assay: NCI one-dose SRB growth assay; format: cell-based; settings: Homo sapiens; SK-MEL-2 (Melanoma), 10^-5 M, 48 h; read-out: % Growth Inhibition (GI %)
SF-295 = assay: NCI one-dose SRB growth assay; format: cell-based; settings: Homo sapiens; SF-295 (CNS Cancer), 10^-5 M, 48 h; read-out: % Growth Inhibition (GI %)
Summary of the method: as §1

NCI-H522 = assay: NCI one-dose SRB growth assay; format: cell-based; settings: Homo sapiens; NCI-H522 (Non-Small Cell Lung Cancer), 10^-5 M, 48 h; read-out: % Growth Inhibition (GI %)
Summary of the method: as §1

MALME-3M = assay: NCI one-dose SRB growth assay; format: cell-based; settings: Homo sapiens; MALME-3M (Melanoma), 10^-5 M, 48 h; read-out: % Growth Inhibition (GI %)
Summary of the method: as §1

NCI-H23 = assay: NCI one-dose SRB growth assay; format: cell-based; settings: Homo sapiens; NCI-H23 (Non-Small Cell Lung Cancer), 10^-5 M, 48 h; read-out: % Growth Inhibition (GI %)
Summary of the method: as §1

SNB-19 = assay: NCI one-dose SRB growth assay; format: cell-based; settings: Homo sapiens; SNB-19 (CNS Cancer), 10^-5 M, 48 h; read-out: % Growth Inhibition (GI %)
Summary of the method: as §1

RXF 393 [2] = assay: NCI one-dose SRB growth assay; format: cell-based; settings: Homo sapiens; RXF 393 (Renal Cancer), 10^-5 M, 48 h; read-out: % Growth Inhibition (GI %)
Summary of the method: as §1

prostate cancer = assay: NCI five-dose SRB assay, subpanel average; settings: 48 h; for GI50 / CC50: Homo sapiens; for GI50: read-out: GI50 (median growth inhibitory); for CC50: read-out: LC50 (median lethal); for TGI (total growth inhibitory): average over prostate cancer subpanel, five concentrations
ovarian cancer = assay: NCI five-dose SRB assay, subpanel average; settings: 48 h; for GI50 / CC50: Homo sapiens; for GI50: read-out: GI50 (median growth inhibitory); for CC50: read-out: LC50 (median lethal); for TGI (total growth inhibitory): average over ovarian cancer subpanel, five concentrations
CNS cancer = assay: NCI five-dose SRB assay, subpanel average; settings: 48 h; for GI50 / CC50: Homo sapiens; for GI50: read-out: GI50 (median growth inhibitory); for CC50: read-out: LC50 (median lethal); for TGI (total growth inhibitory): average over CNS cancer subpanel, five concentrations
SF-539 = assay: NCI five-dose SRB growth assay; format: cell-based; settings: Homo sapiens; SF-539 (CNS Cancer), 48 h
NCI/ADR-RES = assay: NCI five-dose SRB growth assay; format: cell-based; settings: Homo sapiens; NCI/ADR-RES (Ovarian Cancer), 48 h
KM12 = assay: NCI five-dose SRB growth assay; format: cell-based; settings: Homo sapiens; KM12 (Colon Cancer), 48 h
OVCAR-4 = assay: NCI five-dose SRB growth assay; format: cell-based; settings: Homo sapiens; OVCAR-4 (Ovarian Cancer), 48 h
MOLT-4 = assay: NCI five-dose SRB growth assay; format: cell-based; settings: Homo sapiens; MOLT-4 (Leukemia), 48 h
RXF 393 [3] = assay: NCI five-dose SRB growth assay; format: cell-based; settings: Homo sapiens; RXF 393 (Renal Cancer), 48 h
NCI-H226 [4] = assay: NCI five-dose SRB growth assay; format: cell-based; settings: Homo sapiens; NCI-H226 (Non-Small Cell Lung Cancer), 48 h
HT29 = assay: NCI five-dose SRB growth assay; format: cell-based; settings: Homo sapiens, HT-29; HT29 (Colon Cancer), 48 h
HS 578T = assay: NCI five-dose SRB growth assay; format: cell-based; settings: Homo sapiens; HS 578T (Breast Cancer), 48 h
HOP-92 = assay: NCI five-dose SRB growth assay; format: cell-based; settings: Homo sapiens; HOP-92 (Non-Small Cell Lung Cancer), 48 h
SK-MEL-28 = assay: NCI five-dose SRB growth assay; format: cell-based; settings: Homo sapiens; SK-MEL-28 (Melanoma), 48 h

SMILES	GI50 (leukemia) [µM]	CC50 (leukemia) [µM]	TGI (total growth inhibitory) (leukemia)	inhibition at 10 µM (UACC-62) [%]	inhibition at 10 µM (LOX IMVI) [%]	inhibition at 10 µM (BT-549) [%]	inhibition at 10 µM (SK-OV-3) [%]	inhibition at 10 µM (NCI-H226 [1]) [%]	inhibition at 10 µM (ACHN) [%]	inhibition at 10 µM (TK-10) [%]	inhibition at 10 µM (SK-MEL-2) [%]	inhibition at 10 µM (SF-295) [%]	inhibition at 10 µM (NCI-H522) [%]	inhibition at 10 µM (MALME-3M) [%]	inhibition at 10 µM (NCI-H23) [%]	inhibition at 10 µM (SNB-19) [%]	inhibition at 10 µM (RXF 393 [2]) [%]	GI50 (prostate cancer) [µM]	CC50 (prostate cancer) [µM]	TGI (total growth inhibitory) (prostate cancer)	also measured
O=c1[nH]cc(F)c(=O)[nH]1 [Compound 5-FU, 5-fluorouracil, reference compound]	15.1	> 100	c (Compounds showed values > 100µM)	39.7	30.4	37.8	77.5	69.5	39.3	66.9	95.5	69.1	58	58.2	39	65.9	34.3	22.7	> 100	c (Compounds showed values > 100µM)	GI50 (ovarian cancer): 61.4 µM; CC50 (ovarian cancer): > 100 µM; TGI (total growth inhibitory) (ovarian cancer): c (Compounds showed values > 100µM); GI50 (CNS cancer): 72.1 µM; CC50 (CNS cancer): > 100 µM; TGI (total growth inhibitory) (CNS cancer): c (Compounds showed values > 100µM)
O=C(O)c1cn(C2CC2)c2cc(N3CCN(S(=O)(=O)c4ccc(Cl)c(Cl)c4)CC3)c(F)cc2c1=O [Compound 3b]	3.02	> 100	62.55 µM	70.4	98.8	> 100	73.2	58.6	95	66.8	> 100	> 100	> 100	> 100	98.2	75.3	71	3.29	> 100	c (Compounds showed values > 100µM)	GI50 (SF-539): 3.39 µM; GI50 (NCI/ADR-RES): 4.01 µM; GI50 (KM12): 3.62 µM; GI50 (OVCAR-4): 2280 nM; GI50 (MOLT-4): 4 µM; GI50 (RXF 393 [3]): 2980 nM; GI50 (NCI-H226 [4]): 3.58 µM; GI50 (HT29): 3.77 µM; GI50 (HS 578T): 4.26 µM; GI50 (HOP-92): 1540 nM; GI50 (ovarian cancer): 3.39 µM; CC50 (ovarian cancer): > 100 µM; TGI (total growth inhibitory) (ovarian cancer): 88.90 µM; GI50 (CNS cancer): 3.68 µM; CC50 (CNS cancer): > 100 µM; TGI (total growth inhibitory) (CNS cancer): c (Compounds showed values > 100µM); GI50 (SK-MEL-28): 2670 nM
O=C(O)c1cn(C2CC2)c2cc(N3CCN(S(=O)(=O)c4ccc(Cl)cc4Cl)CC3)c(F)cc2c1=O [Compound 2b]				14.6	38.6	13.7	< 10	39.7	14.9	< 10	< 10	< 10	< 10	< 10	16.8	< 10	67.7				
